From patent US20230201632A1, “METHODS FOR FIXING HAIR AND SKIN” (Olaplex, Inc., priority 2013, published 2023)

Assays:
[1] = Perm of hair with binding formulation or hydrogen peroxide, 40 wash and dry cycles; parameters: species or system human; settings: after 40 cycles of washing and drying with the same shampoo and conditioner; hair reduced with ammonium thioglycolate or dithiothreitol
Method: Hair samples were obtained from a human subject and cut in ½ inch wide wefts.
Reducing agents: Ammonium thioglycolate (ATG) was obtained from a permanent wave kit manufactured by Zotos. 300 mg of Dithiothreitol in a 10 g solution was also used as the reducing agent.
Binding formulation: A bismaleate binding agent 2,2′-(ethane-1,2-diylbis(oxy))bis(ethan-1-amine) di-maleate at a concentration of 300 mg in 10 g total solution (water) was used.
The hair was washed with clarifying shampoo, towel dried, and then rolled around a perm rod. Ammonium thioglycolate or dithiothreitol was then applied to the hair and left on the hair for 10 minutes to 1 hour. The hair was then rinsed for 30 seconds to 1 minute and then blotted dry with a towel.
The binding formulation was applied to the hair, via a needle nose applicator, drenching the hair. The binding agent was left on the hair for a period of about 7.5 minutes. The hair was drenched for a second time with the binding formulation and left for a second 7.5 minutes, for a total of 15 minutes. The hair was then rinsed with water for about 1-2 minutes then unrolled from the perm rods. After the hair was removed from the perm rods, the hair was shampooed and conditioned with various salon shampoo and conditioner brands, including LiQWd® Hydrating Shampoo and Hydrating Conditioner. The washing and drying steps were repeated 40 times. […]

[2] = Hair breakage after repeated perm, visual inspection; parameters: species or system human; settings: perm procedure repeated three times over 48 hours
Method: Two hair samples were obtained. Both samples were treated with dithiothreitol or ammonium thioglycolate as described in Example 1. One of the hair samples was subsequently treated with the binding formulation, while the other was neutralized with hydrogen peroxide. The process was completed the same day for the hair treated with the binding formulation. The process was completed in three days with hydrogen peroxide (traditional perm).
The procedure was repeated three times for each hair sample over a 48 hour time period.

For OO [hydrogen peroxide], the “reduction in the overall curl” value [1] was “only slight reduction in the overall curl” and the “hair breakage upon visual inspection” value [2] was “significant breakage”.
